pIC50, pKi: −log10 of the molar value. Values joined by “and” are separate entries in the source; they are usually repeats but may differ in a detail not shown here. Identical values can stand only once. “Also recorded” adds a separate entry of the source. Residues, ends and D or L forms follow the SMILES beside them.
Experiments:
[1] = Plasma stability assay (residual FXIIa inhibitory activity after plasma incubation); format: in vitro ADME, human; conditions: human, plasma
Description: Peptide (2 μl of 2 mM in H2O) was added to 398 μl of citrated human plasma (Innovative Research) to obtain a final peptide concentration of 10 μM. The mixture was incubated in a water bath at 37 °C. At different time points (0, 0.5, 1, 2, 4, 8, 12, 24, 48, and 96 h), samples of 30 μl were removed, diluted to 200 μl with aqueous buffer (10 mM Tris-HCl, pH 7.4, 150 mM NaCl, 10 mM MgCl2, 1 mM CaCl2), and incubated for 20 min at 65 °C to inactivate plasma proteases. The peptide/plasma samples were stored at −20 °C until the residual inhibitory activity of the peptides was measured in a FXIIa inhibition assay. […] IC50 values were derived from the fitted curve using an equation described in the Supplementary Methods. Residual inhibition in % was calculated using the equation IC50,0h/IC50,xh*100, wherein IC50,0h is the functional strength of the inhibitor at time point 0 and IC50,xh the functional strength of the inhibitor after one of the different plasma incubation periods mentioned above.

[2] = target: T1, human β-FXIIa (Homo sapiens, UniProt P00748); test: FXIIa protease inhibition assay with fluorogenic substrate Boc-Gln-Gly-Arg-AMC; format: biochemical
T1 construct: human β-FXIIa (Molecular Innovations cat #); purchased Molecular Innovations HFXIIAB; host or cells: human blood
T1 sequence (P00748 373-615 limits assumed, other chains not shown): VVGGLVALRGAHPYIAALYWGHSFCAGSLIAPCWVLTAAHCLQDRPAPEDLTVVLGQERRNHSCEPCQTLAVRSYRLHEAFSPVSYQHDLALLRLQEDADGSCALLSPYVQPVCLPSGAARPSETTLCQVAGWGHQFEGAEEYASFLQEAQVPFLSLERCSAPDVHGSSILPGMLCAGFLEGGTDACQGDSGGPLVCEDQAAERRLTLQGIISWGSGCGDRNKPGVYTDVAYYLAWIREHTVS
Description: (§1) In order to test the inhibitory activity of peptides without prior purification, we developed the following method. […] After solid-phase peptide synthesis, cleavage, and ether precipitation, the peptides were chemically cyclized and their Ki values were determined in a FXIIa activity assay using a fluorogenic substrate.
(§2) Protease inhibition assays
(§3) The inhibitory activity of peptides was determined by measuring the residual protease activity with a fluorogenic substrate. The assay was performed in buffer containing 10 mM Tris-Cl, pH […]
(§4) 1% (v/v) DMSO in a volume of 150 µl. FXIIa activity was measured with the fluorogenic substrate Boc-Gln-Gly-Arg-AMC (Bachem) at a final concentration of 50 µM. Mouse α-FXIIa (Molecular Innovations cat # MFXIIA) and human β-FXIIa (Molecular Innovations cat # HFXIIAB) were used at final concentrations of 0.4 nM. The reaction was pipetted as follows: 50 µl of bicyclic peptide in assay buffer were added to 50 µl of FXIIa in assay buffer and incubated for 10 minutes at 25°C before 50 µl of 150 µM fluorogenic substrate in assay buffer were added to measure the residual protease activity with an Infinite M200Pro fluorescence plate reader (excitation at 368 nm, emission at 467 nm; Tecan) for a period of 30 minutes with a read every minute at 25°C. The Tecan software i-control (version 1.1) was used for data analysis. Stock solutions of 1 mM bicyclic peptide were prepared by either dissolving the unpurified cyclization reaction with water or by dissolving purified and lyophilized peptide in water. The bicyclic peptides were serially diluted two-fold using assay buffer. Sigmoidal curves were fitted to the data using the following dose response equation (1), wherein x = peptide concentration, y = % protease activity, and p = Hill slope. IC50 values were derived from the fitted curve.
(§5) The inhibition constants (Ki) were calculated according to the equation of Cheng and Prusoff, Ki = IC50/(1+([S]0/Km), wherein IC50 is the functional strength of the inhibitor, [S]0 is the total substrate concentration, and Km is the Michaelis-Menten constant. […]
(§6) the substrate Boc-Gln-Gly-Arg-AMC. […]

[3] = target: T2, Mouse α-FXIIa (Mus musculus, UniProt Q80YC5); test: as above; format: biochemical; conditions: purified peptide without coumarin label; read-out: Ki mouse FXIIa
T2 construct: Mouse α-FXIIa; purchased Molecular Innovations MFXIIA
T2 sequence (Q80YC5 355-597 limits assumed): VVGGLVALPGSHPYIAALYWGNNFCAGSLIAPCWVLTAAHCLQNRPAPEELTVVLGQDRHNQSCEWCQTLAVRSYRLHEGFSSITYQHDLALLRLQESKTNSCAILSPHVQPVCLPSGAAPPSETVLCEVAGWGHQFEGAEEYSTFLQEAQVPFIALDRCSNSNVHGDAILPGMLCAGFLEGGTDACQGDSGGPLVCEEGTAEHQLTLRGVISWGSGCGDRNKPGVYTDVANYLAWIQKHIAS
T2 sequence (Q80YC5 20-354 limits assumed): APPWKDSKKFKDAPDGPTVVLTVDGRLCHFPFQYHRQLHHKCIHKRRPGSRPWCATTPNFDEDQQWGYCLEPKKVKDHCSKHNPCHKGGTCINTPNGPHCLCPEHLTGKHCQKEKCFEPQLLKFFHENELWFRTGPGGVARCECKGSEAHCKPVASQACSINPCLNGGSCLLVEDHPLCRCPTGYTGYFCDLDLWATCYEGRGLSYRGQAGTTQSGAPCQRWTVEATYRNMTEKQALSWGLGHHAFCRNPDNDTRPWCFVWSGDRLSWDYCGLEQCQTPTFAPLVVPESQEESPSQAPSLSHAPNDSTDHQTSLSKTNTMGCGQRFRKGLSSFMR
Description: as §1, §2, §3, §4, §5, §6

[4] = system: FXIIa; conditions: cited from earlier work
[5] = system: hemostasis (tail bleeding); test: Tail bleeding time and volume (tail transection); conditions: mice, 2 mm tail transection, peptides 25 mg kg^−1 SC, heparin 200 IU kg^−1 IV
Description: Mice (8- to 10-week-old) were anesthetized with pentobarbital (50 mg kg^−1, IP), treated with PBS (IV, retro-orbital), 200 IU kg^−1 heparin (IV, retro-orbital), 25 mg kg^−1 FXII900 (SC) or 25 mg kg^−1 FXII901 (SC), and put on a 37 °C heating pad. After 5 min, the distal tail was transected at 2 mm with a disposable surgical blade, and the diameter measured to confirm that it is > 1 mm. The tail was placed in a 50 ml falcon tube filled with phosphate-buffered saline (warmed to 37 °C) and the bleeding time was recorded. The total blood loss was determined by measuring the absorption at 540 nm.

[6] = system: coagulation in artificial lung; test: Extracorporeal circulation (veno-venous ECMO, artificial lung) in rabbits
Description: New Zealand white rabbits of 3.2–4.2 kg (Charles River) were anesthetized via intramuscular injections of ketamine (30 mg kg^−1) and xylazine (5 mg kg^−1). One of the ear veins was catheterized via a 24G winged catheter, and the rabbits were intubated with a 3.0 endotracheal tube. The animals were kept anesthetized throughout the four-hour experiment via inhaled isoflurane (2%) and were ventilated with a peak inspiratory pressure (PIP) of < 20 cmH2O, positive end expiratory pressure of 5 mmHg, tidal volume of 4–6 ml kg^−1, and a respiratory rate of 22–60 breaths per min. Tidal volume and respiratory rate were adjusted to maintain normal arterial blood gases and the listed PIP. Phenylephrine was applied intravenously at a rate of 0.5–5 μg kg^−1 min^−1 to maintain blood pressure. For monitoring blood pressure and collecting blood samples, the rabbits’ right or left carotid arteries were cannulated using a 16-gauge angiocatheter (Becton Dickinson) and were secured with silk ties. The device and circuit were first primed with filtered CO2 and then with saline (NaCl, 0.9% [w/v]) containing solumedrol (30 mg kg^−1). At this point, rabbits of the inhibitor-treated group were injected with 2 mg kg^−1 of FXII900 as a 2 mM solution in PBS (pH 7.4) via the ear vein and the circuit was connected to the rabbits via a venous/venous ECMO configuration using a 14-gauge angiocatheter (Becton Dickinson) and a 6″ pressure tubing that was cut to length from a 24″ pressure tubing (Edwards Lifesciences) in the right and left internal jugular veins, respectively. The circuit was placed in a roller pump (Cobe), and the blood flow was set to 45 ml per min. After connecting the extracorporeal circuit, rabbits of the inhibitor-treated group were infused with 0.075 mg kg^−1 min^−1 FXII900 via the ear vein for the entire duration of the study. Rabbits treated with heparin were initially infused with 60 IU h^−1 (100 IU ml^−1) starting before connection to the circuit. The drip rate was adjusted based on the following nomogram to maintain the ACT in a range between 220 and 300 s. ACT > 320 s: decrease infusion rate by 12 IU h^−1, 320 s > ACT > 300 s: decrease infusion rate by 6 IU h^−1, 300 s > ACT > 220 s: maintain heparin infusion rate, 220 s > ACT > 200 s: increase infusion rate by 6 IU h^−1, 200 s > ACT > 180 s: increase infusion rate by 12 IU h^−1, ACT < 180 s bolus 100 U (1 ml). After four hours, the animals were euthanized by potassium chloride (2 mg kg^−1, IV). At the end of the experiment, 5 ml of heparin was run through the artificial lung while it was still connected to the rabbits.

[7] = system: ferric chloride-induced thrombosis; test: FeCl3 injury thrombosis model in mesenteric arterioles in mice; format: in vivo, mouse
Description: A model of thrombosis in mesenteric arterioles using intravital microscopy was performed according to Angelillo-Scherrer A. et al.[46] with minor modifications. C57BL/6J wild-type mice (male, 10–20 weeks old, 25–30 g, Charles River) were injected intravenously with Rhodamine 6G (100 μl, 1 mM, ACROS Organics product 41902) to fluorescently label the platelets and leucocytes. The mice were injected subcutaneously over the shoulders with FXII900 (5 or 25 mg kg^−1, 0.5 mg ml^−1 in PBS, pH = 7.4) or the negative control FXII901 (5 or 25 mg kg^−1, 0.5 mg ml^−1 in PBS, pH = 7.4), or intravenously (retro-orbital) with 200 IU kg^−1 heparin, and subsequently anesthetized with ketamine (80 mg kg^−1) and xylazine (16 mg kg^−1) via intraperitoneal injection. An abdominal midline incision was made to expose the mesenteric arterioles which were imaged by intravital microscopy using a Mikron IVM500 microscope (Mikron Instruments) coupled with a 50 W mercury lamp (HBO 50 microscope illuminator, Zeiss) attached to combined blue (exciter 455DF70, dichroic 515DRLP, and emitter 515ALP) and green (exciter 525DF45, dichroic 560DRLP, and emitter 565ALP) filter blocks. […] The blood flow, clot formation and vessel occlusion were monitored for 20 or 25 min wherein images were recorded every minute using a digital video cassette recorder (DSR-11, Sony) and analyzed using ImageJ software (version 1.52). Mice were euthanized by final bleeding and cervical dislocation. Time to clot formation and full occlusion of the blood vessel were determined as follows. Clot formation was defined as the formation of a clear aggregation with a diameter of around 10 µm or larger. Occlusion was defined as a clot covering the full diameter of the vessel. Mice showing no speckled pattern at the site of FeCl3 application were assumed to be not injured at the blood vessel and were excluded from the analysis.

[8] = ECMO 4 h, FXII900 2 mg kg^−1 bolus + 0.075 mg kg^−1 min^−1, heparin to ACT 220–300 s
[9] = repeat study, 20 min, heparin 200 IU kg^−1, n = 10

In the case of `CC(C)C[C@@H]1NC(=O)[C@H](CCC(N)=O)NC(=O)[C@H](CCCNC(=N)N)NC(=O)[C@@H]2CSCCC(=O)N3CN(CN(C3)C(=O)CCSC[C@H](NC(=O)[C@@H](CO)NC(=O)[C@H](N)CCCNC(=N)N)C(=O)N[C@@H](Cc3ccccc3)C(=O)N[C@@H](CCCNC(=N)N)C(=O)N[C@@H](CC(C)C)C(=O)N3CCC[C@H]3C(=O)N2)C(=O)CCSC[C@@H](C(=O)N[C@@H](CCCNC(=N)N)C(N)=O)NC(=O)[C@H](CCCNC(=N)N)NC1=O` [FXII850] (HELM PEPTIDE1{[dR].[dS].C.F.R.L.P.C.R.Q.L.R.C.R.[am]}|CHEM1{[O=C(CC[*:1])N1CN(C(=O)CC[*:2])CN(C(=O)CC[*:3])C1]}$PEPTIDE1,CHEM1,3:R3-1:R1|PEPTIDE1,CHEM1,8:R3-1:R2|PEPTIDE1,CHEM1,13:R3-1:R3$$$V2.0), the half-life at 10 μM [1] was 18.5 h, the “Residual activity of human FXIIa” value ([2]; inhibitor 0.390625 nM, 0.000390625 µM) was 94.4127% and the remaining activity at 0.000390625 µM ([2]; inhibitor 0.390625 nM, read-out: Residual activity of human FXIIa) was 97.1%. The “Residual activity of human FXIIa” value ([2]; inhibitor 0.78125 nM, 0.00078125 µM) was 86.6748%, the remaining activity at 0.00078125 µM ([2]; inhibitor 0.78125 nM, read-out: Residual activity of human FXIIa) was 93.2% and the “Residual activity of human FXIIa” value ([2]; inhibitor 1.5625 nM, 0.0015625 µM) was 72.1433%. For the same compound, the remaining activity at 0.0015625 µM ([2]; inhibitor 1.5625 nM, read-out: Residual activity of human FXIIa) was 82.9%, the “Residual activity of human FXIIa” value ([2]; inhibitor 3.125 nM, 0.003125 µM) was 57.4159% and the remaining activity at 0.003125 µM ([2]; inhibitor 3.125 nM, read-out: Residual activity of human FXIIa) was 73.8%. The “Residual activity of human FXIIa” value ([2]; inhibitor 6.25 nM, 0.00625 µM) was 39.85%, the remaining activity at 0.00625 µM ([2]; inhibitor 6.25 nM, read-out: Residual activity of human FXIIa) was 56.3% and the “Residual activity of human FXIIa” value ([2]; inhibitor 12.5 nM, 0.0125 µM) was 25.3131%. The remaining activity at 0.0125 µM ([2]; inhibitor 12.5 nM, read-out: Residual activity of human FXIIa) was 37.4%, the “Residual activity of human FXIIa” value ([2]; inhibitor 50 nM, 0.05 µM) was 12.7513% and 5.338% and the “Residual activity of human FXIIa” value ([2]; inhibitor 100 nM, 0.1 µM) was 6.402% and 0.6734%. The “Residual activity of human FXIIa” value ([2]; inhibitor 200 nM, 0.2 µM) was 3.022% and 0%, the “Residual activity of human FXIIa” value ([2]; inhibitor 400 nM, 0.4 µM) was 1.539% and 0% and the pKi ([2]; purified peptide without coumarin label, read-out: Ki human FXIIa) was 8.30. The pKi [3] was 7.46.
In the case of `NC(N)=NCCC[C@H](NC(=O)[C@H](Cc1ccccc1)NC(=O)[C@H]1CCCN1)C(=O)CCl` [PCK, H-D-Pro-Phe-Arg-chloromethylketone] (HELM PEPTIDE1{[dP].F.R.[ClC[*:1]]}$$$$V2.0), the pIC50 [4] is listed as 6.74.
With heparin the bleeding time ([5]; 30 min monitored) was “bled essentially continuously throughout the monitored 30 min period; also recorded: constantly bleeding throughout the 30 min period”, the blood loss [5] was “medium to high blood loss; also recorded: either a small (3 mice) or large loss of blood (3 mice); also recorded: lost a large volume of blood” and the aPTT prolongation [6, 8] was 1.5 fold. For the same compound, the “activated clotting time (ACT) prolongation” value [6, 8] was 2 fold, the bleeding time prolongation ([6]; ECMO, all time points) was 2 fold and the “volume of the clot in relation to the device volume” value ([6]; ECMO, end of experiment) was 5%. For the same compound, the “bleeding time (ear incision)” value ([6]; ECMO, throughout the experiment) was 5 to 10 min, the “Clot (time to clot formation), individual mice” value ([7]; 200 U kg-1) was 10 min (2×) and 15 min (3×) and 13 min and the “Occlusion (time to full occlusion), individual mice” value ([7]; 200 U kg-1) was 19 min. The “mice showing blood clotting” value [7, 9] was “six” and the “mice showing vessel occlusion” value [7, 9] was “one”.

— article PMC7403315, “Cyclic peptide FXII inhibitor provides safe anticoagulation in a thrombosis model and in artificial lungs” (Nature Communications, 2020)
